In PubChem BioAssay AID248 (DTP/NCI, 2004):
Several values for one entry are separate records, joined by “and”; a condition that tells them apart may be missing. Identical values can stand only once. Toxic doses and inconclusive results are not listed.

Tested on: L1210 leukemia ip in BDF1 mice, survival T/C
Assay: NCI In Vivo Anticancer Drug Screen. Data for tumor model L1210 Leukemia (intraperitoneal) in B6D2F1 (BDF1) mice
Details: endpoint: mean survival time, higher = longer survival
Method in brief: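 In this screen, tumor-bearing mice given compound are compared to those given vehicle, and their survival values are reported as a treated-to-control quotient.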

[1] = dose: 100.0 mg/kg/injection, schedule: Q01DX001 (ip), vehicle: carboxymethylcellulose (CMC)
[2] = dose: 100.0 mg/kg/injection, schedule: Q01DX009 (ip), vehicle: Klucel (hydroxypropylcellulose) (HPC)
[3] = dose: 200.0 mg/kg/injection, schedule: Q01DX009 (ip), vehicle: Klucel (hydroxypropylcellulose) (HPC)
[4] = dose: 400.0 mg/kg/injection, schedule: Q01DX009 (ip), vehicle: Klucel (hydroxypropylcellulose) (HPC)
[5] = dose: 25.0 mg/kg/injection, schedule: Q01DX009 (ip), vehicle: saline
[6] = dose: 25.0 mg/kg/injection, schedule: Q04DX003 (ip), vehicle: saline
[7] = dose: 50.0 mg/kg/injection, schedule: Q01DX009 (ip), vehicle: saline
[8] = dose: 50.0 mg/kg/injection, schedule: Q04DX003 (ip), vehicle: saline
[9] = dose: 100.0 mg/kg/injection, schedule: Q04DX003 (ip), vehicle: saline
[10] = dose: 100.0 mg/kg/injection, schedule: Q01DX001 (ip), vehicle: Klucel (hydroxypropylcellulose) (HPC)
[11] = dose: 200.0 mg/kg/injection, schedule: Q01DX001 (ip), vehicle: Klucel (hydroxypropylcellulose) (HPC)
[12] = dose: 400.0 mg/kg/injection, schedule: Q01DX001 (ip), vehicle: Klucel (hydroxypropylcellulose) (HPC)
[13] = dose: 50.0 mg/kg/injection, schedule: Q01DX001 (ip), vehicle: saline
[14] = dose: 100.0 mg/kg/injection, schedule: Q01DX001 (ip), vehicle: saline
[15] = dose: 200.0 mg/kg/injection, schedule: Q01DX001 (ip), vehicle: carboxymethylcellulose (CMC)
[16] = dose: 400.0 mg/kg/injection, schedule: Q01DX001 (ip), vehicle: carboxymethylcellulose (CMC)
[17] = dose: 100.0 mg/kg/injection, schedule: Q01DX009 (ip), vehicle: saline

With O=C(OCC1OC(n2c(=O)[nH]cc(F)c2=O)C(OC(=O)c2ccccc2)C1OC(=O)c1ccccc1)c1ccccc1 (stereo not drawn) the T/C (dose: 12.5 mg/kg/injection, schedule: Q01DX005 (ip), vehicle: saline) was 121 % of control, the T/C (dose: 20.0 mg/kg/injection, schedule: Q01DX005 (ip), vehicle: Klucel (hydroxypropylcellulose) (HPC)) was 108 % of control and the T/C (dose: 25.0 mg/kg/injection, schedule: Q01DX005 (ip), vehicle: saline) was 152 % of control. For the same compound, the T/C (dose: 50.0 mg/kg/injection, schedule: Q01DX005 (ip), vehicle: saline) was 196 % of control and 206 % of control, the T/C (dose: 80.0 mg/kg/injection, schedule: Q01DX005 (ip), vehicle: Klucel (hydroxypropylcellulose) (HPC)) was 209 % of control and the T/C (dose: 100.0 mg/kg/injection, schedule: Q01DX005 (ip), vehicle: saline) was 94 % of control. The T/C (dose: 200.0 mg/kg/injection, schedule: Q01DX005 (ip), vehicle: saline) was 93 % of control and 92 % of control.
With C=C1CC(c2ccc(S(=O)(=O)N3CCOCC3)cc2)OC1=O (stereo not drawn) the T/C (dose: 1.56 mg/kg/injection, schedule: Q01DX009 (ip), vehicle: Klucel (hydroxypropylcellulose) (HPC)) was 94 % of control, the T/C (dose: 3.12 mg/kg/injection, schedule: Q01DX009 (ip), vehicle: Klucel (hydroxypropylcellulose) (HPC)) was 106 % of control and the T/C (dose: 6.25 mg/kg/injection, schedule: Q01DX009 (ip), vehicle: Klucel (hydroxypropylcellulose) (HPC)) was 106 % of control. The T/C (dose: 12.5 mg/kg/injection, schedule: Q01DX009 (ip), vehicle: Klucel (hydroxypropylcellulose) (HPC)) was 105 % of control, the T/C (dose: 25.0 mg/kg/injection, schedule: Q01DX009 (ip), vehicle: Klucel (hydroxypropylcellulose) (HPC)) was 93 % of control and the T/C (dose: 100.0 mg/kg/injection, schedule: Q04DX002 (ip), vehicle: Klucel (hydroxypropylcellulose) (HPC)) was 95 % of control. For the same compound, the T/C (dose: 200.0 mg/kg/injection, schedule: Q04DX002 (ip), vehicle: Klucel (hydroxypropylcellulose) (HPC)) was 113 % of control.
In the case of Cc1ccc(N2CCN(c3ccc(C)cc3)CC2)cc1, the T/C (dose: 100.0 mg/kg/injection, schedule: Q04DX002 (ip), vehicle: gum acacia) is reported as 109 % of control, the T/C (dose: 200.0 mg/kg/injection, schedule: Q04DX002 (ip), vehicle: gum acacia) is reported as 95 % of control and the T/C (dose: 400.0 mg/kg/injection, schedule: Q04DX002 (ip), vehicle: gum acacia) is reported as 103 % of control.
Cc1ccc(S(=O)(=O)Nc2ccccc2C(=O)c2ccc(C)c(C)c2)cc1 was tested, and the T/C [1] was 100 % of control.
CN(Cc1ccccc1)C(=O)Nc1ccc(F)c([N+](=O)[O-])c1 was tested, and the T/C [2] was 113 % of control, the T/C [3] was 98 % of control and the T/C [4] was 101 % of control.
With Nc1ccccc1SC(CC(=O)c1ccc(-c2ccccc2)cc1)c1ccco1 (stereo not drawn) the T/C (dose: 100.0 mg/kg/injection, schedule: Q01DX009 (ip), vehicle: saline with Tween-80) was 94 % of control, the T/C (dose: 100.0 mg/kg/injection, schedule: Q04DX002 (ip), vehicle: saline with Tween-80) was 105 % of control and the T/C (dose: 200.0 mg/kg/injection, schedule: Q01DX009 (ip), vehicle: saline with Tween-80) was 91 % of control. The T/C (dose: 200.0 mg/kg/injection, schedule: Q04DX002 (ip), vehicle: saline with Tween-80) was 102 % of control, the T/C (dose: 400.0 mg/kg/injection, schedule: Q01DX009 (ip), vehicle: saline with Tween-80) was 91 % of control and the T/C (dose: 400.0 mg/kg/injection, schedule: Q04DX002 (ip), vehicle: saline with Tween-80) was 91 % of control.
In the case of CN1CCCCC1CCN1c2ccccc2Sc2ccc(S(C)=O)cc21 (stereo not drawn), the T/C (dose: 6.25 mg/kg/injection, schedule: Q01DX009 (ip), vehicle: saline) is reported as 97 % of control, the T/C (dose: 12.5 mg/kg/injection, schedule: Q01DX009 (ip), vehicle: saline) is reported as 98 % of control and 101 % of control and 108 % of control and the T/C [5] is reported as 100 % of control and 101 % of control (2×). The T/C [6] was 112 % of control, the T/C [7] was 119 % of control and the T/C [8] was 115 % of control. For the same compound, the T/C [9] was 105 % of control.
For c1cc(-c2sc(-c3ccncc3)c(-c3ccncc3)c2-c2ccncc2)ccn1, the T/C [10] was 107 % of control, the T/C [11] was 98 % of control and the T/C [12] was 98 % of control.
In the case of O=S(=O)(Nc1ccc(N(c2c(Cl)c(Cl)c(NS(=O)(=O)c3ccccc3)c(Cl)c2Cl)S(=O)(=O)c2ccccc2)cc1)c1ccccc1, the T/C [10] is reported as 93 % of control, the T/C [11] is reported as 96 % of control and the T/C [12] is reported as 95 % of control.
In the case of O=C(Nc1ccccc1C(=O)N/N=C/c1ccc(Cl)cc1Cl)c1ccccc1Cl, the T/C [2] is reported as 90 % of control, the T/C [3] is reported as 97 % of control and the T/C [4] is reported as 86 % of control.
With O=C1CCCCCCCC1O (stereo not drawn) the T/C [13] was 96 % of control, the T/C [14] was 98 % of control and the T/C (dose: 200.0 mg/kg/injection, schedule: Q01DX001 (ip), vehicle: saline) was 102 % of control. The T/C (dose: 400.0 mg/kg/injection, schedule: Q01DX001 (ip), vehicle: saline) was 104 % of control.
With Nc1nc(N)c(-c2ccccc2)c(C=O)n1 the T/C (dose: 100.0 mg/kg/injection, schedule: Q04DX003 (ip), vehicle: saline with Tween-80) was 110 % of control, the T/C (dose: 200.0 mg/kg/injection, schedule: Q04DX003 (ip), vehicle: saline with Tween-80) was 117 % of control and the T/C (dose: 400.0 mg/kg/injection, schedule: Q04DX003 (ip), vehicle: saline with Tween-80) was 110 % of control.
For COc1ccccc1NC(=O)NO, the T/C [1] was 97 % of control, the T/C [15] was 97 % of control and the T/C [16] was 100 % of control.
For CC(CS(=O)(=O)O)N1CCOCC1 (stereo not drawn), the T/C [17] was 95 % of control, the T/C [9] was 100 % of control and the T/C (dose: 200.0 mg/kg/injection, schedule: Q01DX009 (ip), vehicle: saline) was 98 % of control. For the same compound, the T/C (dose: 200.0 mg/kg/injection, schedule: Q04DX003 (ip), vehicle: saline) was 101 % of control, the T/C (dose: 400.0 mg/kg/injection, schedule: Q01DX009 (ip), vehicle: saline) was 102 % of control and the T/C (dose: 400.0 mg/kg/injection, schedule: Q04DX003 (ip), vehicle: saline) was 97 % of control.
O=C(Nc1ccc(Cl)cc1[N+](=O)[O-])N1CCN(c2ccccc2)CC1 was tested, and the T/C (dose: 44.0 mg/kg/injection, schedule: Q01DX009 (ip), vehicle: Klucel (hydroxypropylcellulose) (HPC)) was 101 % of control, the T/C (dose: 66.0 mg/kg/injection, schedule: Q01DX009 (ip), vehicle: Klucel (hydroxypropylcellulose) (HPC)) was 97 % of control and the T/C [2] was 101 % of control. For the same compound, the T/C (dose: 150.0 mg/kg/injection, schedule: Q01DX009 (ip), vehicle: Klucel (hydroxypropylcellulose) (HPC)) was 95 % of control, the T/C [3] was 96 % of control and the T/C [4] was 101 % of control.
CN(NC(=O)CC(=O)NN(C)C(=S)c1ccc(Cl)cc1)C(=S)c1ccc(Cl)cc1 was tested, and the T/C (dose: 25.0 mg/kg/injection, schedule: Q01DX009 (ip), vehicle: gum acacia) was 96 % of control, the T/C (dose: 25.0 mg/kg/injection, schedule: Q04DX003 (ip), vehicle: gum acacia) was 92 % of control and the T/C (dose: 50.0 mg/kg/injection, schedule: Q01DX009 (ip), vehicle: gum acacia) was 91 % of control. The T/C (dose: 50.0 mg/kg/injection, schedule: Q04DX003 (ip), vehicle: gum acacia) was 93 % of control, the T/C (dose: 100.0 mg/kg/injection, schedule: Q01DX009 (ip), vehicle: gum acacia) was 89 % of control and the T/C (dose: 100.0 mg/kg/injection, schedule: Q04DX003 (ip), vehicle: gum acacia) was 90 % of control. The T/C (dose: 200.0 mg/kg/injection, schedule: Q04DX003 (ip), vehicle: gum acacia) was 86 % of control and the T/C (dose: 400.0 mg/kg/injection, schedule: Q04DX003 (ip), vehicle: gum acacia) was 92 % of control.
In the case of CN(C)CCN=C(Nc1ccccn1)Nc1ccccn1, the T/C (dose: 12.5 mg/kg/injection, schedule: Q01DX001 (ip), vehicle: saline) is reported as 113 % of control, the T/C (dose: 25.0 mg/kg/injection, schedule: Q01DX001 (ip), vehicle: saline) is reported as 104 % of control and the T/C [5] is reported as 110 % of control. The T/C [6] was 100 % of control, the T/C [13] was 113 % of control and the T/C [7] was 100 % of control. For the same compound, the T/C [8] was 95 % of control, the T/C [14] was 97 % of control and the T/C [17] was 97 % of control. For the same compound, the T/C [9] was 113 % of control.
In the case of COC(=O)CC1C(C)(C)C(=O)C2CC3=C4CC(=O)OC(c5ccoc5)C4(C)CCC3C1(C)C2=O (stereo not drawn), the T/C [1] is reported as 97 % of control, the T/C [15] is reported as 92 % of control and the T/C [16] is reported as 90 % of control.
CCC(/C=C1\[Se]c2ccc(C)cc2N1CC)=C\c1[se]c2ccc(C)cc2[n+]1CC was tested, and the T/C (dose: 2.0 mg/kg/injection, schedule: Q01DX001 (ip), vehicle: other) was 103 % of control and the T/C (dose: 4.0 mg/kg/injection, schedule: Q01DX001 (ip), vehicle: other) was 101 % of control.
